What was measured:
Assay type in all cases: cell-based
human TLR8 = target: T1, human TLR8 (Homo sapiens, UniProt Q9NR97); test: TLR8 inhibition reporter assay (HEK-Blue cells, SEAP reporter, R848 stimulation); settings: HEK-Blue cells overexpressing human TLR8, SEAP reporter, R848 15.9 μM; read-out: TLR8 IC50
T1 construct: host or cells: HEK-Blue cells
T1 sequence (Q9NR97 27-1041): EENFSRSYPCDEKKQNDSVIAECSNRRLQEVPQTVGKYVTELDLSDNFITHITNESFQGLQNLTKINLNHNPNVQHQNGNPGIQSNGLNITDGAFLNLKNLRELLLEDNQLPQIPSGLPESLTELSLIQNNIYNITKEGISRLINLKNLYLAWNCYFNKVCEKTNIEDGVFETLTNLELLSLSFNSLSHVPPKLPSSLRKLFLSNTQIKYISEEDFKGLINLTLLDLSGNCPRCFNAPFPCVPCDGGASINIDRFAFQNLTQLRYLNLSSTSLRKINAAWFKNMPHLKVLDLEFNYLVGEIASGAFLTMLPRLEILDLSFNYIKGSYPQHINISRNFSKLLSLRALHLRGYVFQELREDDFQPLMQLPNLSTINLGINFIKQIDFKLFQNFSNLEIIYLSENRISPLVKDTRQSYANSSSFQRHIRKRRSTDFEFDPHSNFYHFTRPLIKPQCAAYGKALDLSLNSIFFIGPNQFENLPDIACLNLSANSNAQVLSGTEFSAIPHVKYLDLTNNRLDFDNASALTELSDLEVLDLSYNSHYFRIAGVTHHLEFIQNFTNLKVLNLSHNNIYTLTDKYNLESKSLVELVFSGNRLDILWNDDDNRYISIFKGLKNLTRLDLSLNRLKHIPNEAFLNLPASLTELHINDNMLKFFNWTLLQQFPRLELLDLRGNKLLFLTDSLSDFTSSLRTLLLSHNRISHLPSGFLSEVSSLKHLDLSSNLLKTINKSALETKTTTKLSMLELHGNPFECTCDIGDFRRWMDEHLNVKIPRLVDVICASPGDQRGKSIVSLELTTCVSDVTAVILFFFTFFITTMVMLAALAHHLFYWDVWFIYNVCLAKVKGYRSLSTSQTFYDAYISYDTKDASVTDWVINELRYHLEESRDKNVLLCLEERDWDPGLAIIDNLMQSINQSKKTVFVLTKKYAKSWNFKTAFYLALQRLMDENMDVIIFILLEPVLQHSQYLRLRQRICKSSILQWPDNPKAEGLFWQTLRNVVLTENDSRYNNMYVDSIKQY
In short: (§1)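 Dose–response from 0.05 nM to 50 μM was run in HEK-Blue human TLR7, TLR8 and TLR9 reporter cells. After 30 min at room temperature with compound, ligand was added (TLR7 gardiquimod 7.5 μM; TLR8 R848 15.9 μM; TLR9 ODN2006 5 nM) and SEAP measured next day, at 22 h.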

human TLR7 = target: T2, human TLR7 (Homo sapiens, UniProt Q9NYK1); test: TLR7 inhibition reporter assay (HEK-Blue cells, SEAP reporter, gardiquimod stimulation); settings: HEK-Blue cells overexpressing human TLR7, SEAP reporter, gardiquimod 7.5 μM; read-out: TLR7 IC50
T2 construct: host or cells: HEK-Blue cells
T2 sequence (Q9NYK1 27-1049): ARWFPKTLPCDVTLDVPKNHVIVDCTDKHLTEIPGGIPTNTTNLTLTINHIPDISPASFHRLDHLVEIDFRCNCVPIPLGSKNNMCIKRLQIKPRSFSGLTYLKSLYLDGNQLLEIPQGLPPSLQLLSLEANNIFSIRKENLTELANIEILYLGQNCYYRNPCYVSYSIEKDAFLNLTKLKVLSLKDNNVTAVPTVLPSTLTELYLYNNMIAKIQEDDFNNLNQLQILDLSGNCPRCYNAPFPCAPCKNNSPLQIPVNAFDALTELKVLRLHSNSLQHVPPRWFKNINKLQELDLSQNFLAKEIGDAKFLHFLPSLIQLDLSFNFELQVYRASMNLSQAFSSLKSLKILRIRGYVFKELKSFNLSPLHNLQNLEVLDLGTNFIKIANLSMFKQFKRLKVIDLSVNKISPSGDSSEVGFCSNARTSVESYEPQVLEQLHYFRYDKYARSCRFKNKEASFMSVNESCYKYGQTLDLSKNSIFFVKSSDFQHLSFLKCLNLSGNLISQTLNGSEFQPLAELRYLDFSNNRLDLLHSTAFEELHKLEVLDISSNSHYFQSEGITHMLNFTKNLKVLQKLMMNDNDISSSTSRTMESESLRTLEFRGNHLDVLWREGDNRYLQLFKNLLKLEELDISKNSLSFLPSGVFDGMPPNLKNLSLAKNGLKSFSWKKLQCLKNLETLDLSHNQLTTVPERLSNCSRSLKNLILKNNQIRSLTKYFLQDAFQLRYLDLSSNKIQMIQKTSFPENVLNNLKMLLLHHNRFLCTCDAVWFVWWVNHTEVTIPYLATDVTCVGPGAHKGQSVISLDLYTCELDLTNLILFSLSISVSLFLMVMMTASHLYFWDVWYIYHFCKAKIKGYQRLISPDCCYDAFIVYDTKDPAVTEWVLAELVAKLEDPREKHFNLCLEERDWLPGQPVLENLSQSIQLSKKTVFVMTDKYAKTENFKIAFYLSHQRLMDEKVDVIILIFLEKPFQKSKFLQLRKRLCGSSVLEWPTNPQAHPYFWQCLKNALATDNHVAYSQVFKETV
In short: as §1

human TLR9 = target: T3, human TLR9 (Homo sapiens, UniProt Q9NR96); test: TLR9 inhibition reporter assay (HEK-Blue cells, SEAP reporter, ODN2006 stimulation); settings: HEK-Blue cells overexpressing human TLR9, SEAP reporter, ODN2006 5 nM
T3 construct: host or cells: HEK-Blue cells
T3 sequence (Q9NR96 26-1032): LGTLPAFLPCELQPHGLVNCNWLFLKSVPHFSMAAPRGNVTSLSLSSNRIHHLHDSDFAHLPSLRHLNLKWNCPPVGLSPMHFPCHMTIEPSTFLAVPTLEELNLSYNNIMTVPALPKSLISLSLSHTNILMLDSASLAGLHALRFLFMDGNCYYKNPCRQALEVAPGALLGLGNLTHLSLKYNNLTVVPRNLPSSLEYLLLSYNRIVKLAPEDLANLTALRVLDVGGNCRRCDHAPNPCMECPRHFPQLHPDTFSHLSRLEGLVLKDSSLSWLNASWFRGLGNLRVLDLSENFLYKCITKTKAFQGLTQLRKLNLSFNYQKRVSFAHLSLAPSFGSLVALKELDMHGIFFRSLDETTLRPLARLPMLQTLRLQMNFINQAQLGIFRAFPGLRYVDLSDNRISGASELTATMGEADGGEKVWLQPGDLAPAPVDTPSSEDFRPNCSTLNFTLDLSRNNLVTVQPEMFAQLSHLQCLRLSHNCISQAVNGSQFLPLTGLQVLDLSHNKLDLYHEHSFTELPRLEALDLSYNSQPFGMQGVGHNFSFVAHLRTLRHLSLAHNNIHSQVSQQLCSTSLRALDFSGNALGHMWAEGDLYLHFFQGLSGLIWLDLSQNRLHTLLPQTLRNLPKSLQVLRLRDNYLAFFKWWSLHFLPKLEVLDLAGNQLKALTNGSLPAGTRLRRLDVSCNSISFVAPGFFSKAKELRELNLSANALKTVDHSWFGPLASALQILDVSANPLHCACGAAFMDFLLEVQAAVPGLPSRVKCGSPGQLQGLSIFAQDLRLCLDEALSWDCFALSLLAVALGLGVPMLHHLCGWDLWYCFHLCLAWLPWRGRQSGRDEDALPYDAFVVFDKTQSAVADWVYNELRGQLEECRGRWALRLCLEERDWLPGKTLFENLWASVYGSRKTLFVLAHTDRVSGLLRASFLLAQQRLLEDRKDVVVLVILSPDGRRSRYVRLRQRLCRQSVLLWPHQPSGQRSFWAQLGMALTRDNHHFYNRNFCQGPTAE
In short: as §1

IC50 (human TLR8)	IC50 (human TLR7)	IC50 (human TLR9)	Compound
2.68 nM	10.6 nM	45300 nM	Cc1c(-c2[nH]c3sc(C4CCC(NCC(C)(C)O)CC4)nc3c2C(C)C)cn(C)c(=O)c1C (single isomer, unassigned) [Example 251, 5-(2-(4-((2-hydroxy-2-methylpropyl)amino)cyclohexyl)-6-isopropyl-4H-pyrrolo[3,2-d]thiazol-5-yl)-1,3,4-trimethylpyridin-2(1H)-one]
35.8 nM	67.9 nM	> 50000 nM	Cc1c(-c2[nH]c3sc(C4CCC(NCC(C)(C)O)CC4)nc3c2C(C)C)cn(C)c(=O)c1C (single isomer, unassigned) [Example 252, 5-(2-(4-((2-hydroxy-2-methylpropyl)amino)cyclohexyl)-6-isopropyl-4H-pyrrolo[3,2-d]thiazol-5-yl)-1,3,4-trimethylpyridin-2(1H)-one]
3.01 nM	4.7 nM	23000 nM	Cc1c(-c2[nH]c3sc(C4CCC(NC(C)C)CC4)nc3c2C(C)C)cn(C)c(=O)c1C (single isomer, unassigned) [Example 253, 5-(6-isopropyl-2-(4-(isopropylamino)cyclohexyl)-4H-pyrrolo[3,2-d]thiazol-5-yl)-1,3,4-trimethylpyridin-2(1H)-one]
22.7 nM	26.8 nM	29200 nM	Cc1c(-c2[nH]c3sc(C4CCC(NC(C)C)CC4)nc3c2C(C)C)cn(C)c(=O)c1C (single isomer, unassigned) [Example 254, 5-(6-isopropyl-2-(4-(isopropylamino)cyclohexyl)-4H-pyrrolo[3,2-d]thiazol-5-yl)-1,3,4-trimethylpyridin-2(1H)-one]
4.88 nM	6.86 nM	15100 nM	Cc1c(-c2[nH]c3sc(C4CCC(N5CCC5)CC4)nc3c2C(C)C)cn(C)c(=O)c1C (single isomer, unassigned) [Example 255, 5-(2-(4-(azetidin-1-yl)cyclohexyl)-6-isopropyl-4H-pyrrolo[3,2-d]thiazol-5-yl)-1,3,4-trimethylpyridin-2(1H)-one]
31.3 nM	34.3 nM	16900 nM	Cc1c(-c2[nH]c3sc(C4CCC(N5CCC5)CC4)nc3c2C(C)C)cn(C)c(=O)c1C (single isomer, unassigned) [Example 256, 5-(2-(4-(azetidin-1-yl)cyclohexyl)-6-isopropyl-4H-pyrrolo[3,2-d]thiazol-5-yl)-1,3,4-trimethylpyridin-2(1H)-one]
0.86 nM	13.6 nM	34900 nM	Cc1c(-c2[nH]c3sc(C4CCC(NCC5(S(C)(=O)=O)CC5)CC4)nc3c2C(C)C)cn(C)c(=O)c1C (single isomer, unassigned) [Example 257, 5-(6-isopropyl-2-(4-(((1-(methylsulfonyl)cyclopropyl)methyl)amino)cyclohexyl)-4H-pyrrolo[3,2-d]thiazol-5-yl)-1,3,4-trimethylpyridin-2(1H)-one]
9.16 nM	36.5 nM	29400 nM	Cc1c(-c2[nH]c3sc(C4CCC(NCC5(S(C)(=O)=O)CC5)CC4)nc3c2C(C)C)cn(C)c(=O)c1C (single isomer, unassigned) [Example 258, 5-(6-isopropyl-2-(4-(((1-(methylsulfonyl)cyclopropyl)methyl)amino)cyclohexyl)-4H-pyrrolo[3,2-d]thiazol-5-yl)-1,3,4-trimethylpyridin-2(1H)-one]
13.8 nM	23.5 nM	> 50000 nM	Cc1c(-c2[nH]c3sc(C4CCC(N5CCNC(=O)C5)CC4)nc3c2C(C)C)cn(C)c(=O)c1C (single isomer, unassigned) [Example 259, 4-(4-(6-isopropyl-5-(1,4,5-trimethyl-6-oxo-1,6-dihydropyridin-3-yl)-4H-pyrrolo[3,2-d]thiazol-2-yl)cyclohexyl)piperazin-2-one]
138 nM	170 nM	> 50000 nM	Cc1c(-c2[nH]c3sc(C4CCC(N5CCNC(=O)C5)CC4)nc3c2C(C)C)cn(C)c(=O)c1C (single isomer, unassigned) [Example 260, 4-(4-(6-isopropyl-5-(1,4,5-trimethyl-6-oxo-1,6-dihydropyridin-3-yl)-4H-pyrrolo[3,2-d]thiazol-2-yl)cyclohexyl)piperazin-2-one]
2.26 nM	8.43 nM	17100 nM	Cc1c(-c2[nH]c3sc(C4CCC(N(C)C(C)C)CC4)nc3c2C(C)C)cn(C)c(=O)c1C (single isomer, unassigned) [Example 261, 5-(6-isopropyl-2-(4-(isopropyl(methyl)amino)cyclohexyl)-4H-pyrrolo[3,2-d]thiazol-5-yl)-1,3,4-trimethylpyridin-2(1H)-one]
17.5 nM	23.8 nM	18300 nM	Cc1c(-c2[nH]c3sc(C4CCC(N(C)C(C)C)CC4)nc3c2C(C)C)cn(C)c(=O)c1C (single isomer, unassigned) [Example 262, 5-(6-isopropyl-2-(4-(isopropyl(methyl)amino)cyclohexyl)-4H-pyrrolo[3,2-d]thiazol-5-yl)-1,3,4-trimethylpyridin-2(1H)-one]

From patent US20230139171A1 (SITA Information Networking Computing UK Limited, priority 2019, published 2023)
